How the values were obtained:
[1] = molecular target: anti-cocaine antibody (present antibodies); test: Competition assays with constant [3H]-cocaine and nonradioactive competitors at the antibody; details: competition with [3H]-cocaine at antibody; read-out: binding inhibition constant (Ki)
Description: (§1) In another embodiment, an antibody binds cocaine or a derivative thereof. […] Other examples of cocaine derivatives include: (−) cocaine; cocaine propyl ester; RTI-128; RTI-66; RTI-160; RTI-192; m-hydroxycocaine; WIN 35,065-2; WIN 35,428; RTI-31; RTI-32; RTI-55; RTI-111; m-hydroxybenzoylecgonine; p-hydroxybenzoylecgonine; RTI-113; tropine; benztropine; 4′,4″-difluoro-3α-diphenylmethoxytropane; hyoscyamine-N-oxide; methylanisotropine; tropisetronmethiodide; anisodine; scopotamine; scopotamine-N-oxide; methylscopolamine; N-butylscopolamine; (−) pseudococaine; (+) cocaine; norcaine; benzoylnorecgonine; (+) pseudococaine; ecgonidine; exo-6-hydroxytropinone; and methylcocaethylene.

[2] = Cocaine pharmacokinetics in plasma and brain (GC/MS), absence of mAb; details: for mean metabolite concentration in brain / mean metabolite concentration in plasma: 5 min after cocaine injection
Description: Jugular vein catheterized male Swiss-Webster mice (22-28 g at the start of the studies) are purchased. Mice are housed individually with free access to food and water and kept on a 12 h light/dark cycle.
The antibody (3-5 mg/ml) in phosphate-buffered saline (PBS) or vehicle (PBS) is infused at a rate of approximately 0.35 ml/min for up to two min, depending on the antibody concentration and the body weight of the animal, with the animal held under mild restraint. One hour after completion of the infusion of mAb, cocaine HCl (0.56 mg/kg) plus heparin (400 units/kg) is injected intravenously through the same catheter at a volume of 4.0 ml/kg body weight. At most sampling times, sodium pentobarbital (45 mg/kg, i.p) is administered three minutes prior to sacrificing the animal. For the 0.75 min time point the cocaine is injected into anesthetized mice. At the designated times after the injection of cocaine, anesthetized mice are sacrificed by decapitation and trunk blood (typically 0.8-1.2 ml) is collected in a 1.5 ml polypropylene microcentrifuge tube containing 11.2 μl heparin (1.0 unit/μl) and NaF (16 mg/0.8 ml of blood) to inhibit, respectively, blood coagulation and enzymatic hydrolysis of cocaine. The blood samples are centrifuged at 5,000×g for 3 min, then the plasma (typically 0.4-0.8 ml) is carefully separated from packed red blood cells, placed into sterile 1.5 ml Eppendorf microcentrifuge tubes, rapidly frozen on dry ice and then stored at −80° C. until analysis.
The whole brain is quickly removed from the decapitated mice, surface blood is blotted away, and the brain is placed in a polypropylene tube, rapidly frozen on dry ice and then stored at −80° C. until analysis. For analysis, brains are weighed and cold deionized, distilled water added to produce a total volume of 1 ml, then homogenized and centrifuged at 13,000 rpm for 45 min at 4° C. The resulting supernatants (0.4-0.6 ml) are collected into sterile polypropylene microcentrifuge tubes and an aliquot (0.05-0.40 ml) is processed for cocaine/metabolite analysis by GC/MS and hemoglobin content. Any remaining sample is stored at −80° C.
In order to determine in vivo concentrations of cocaine and its metabolites BE and EME, following the i.v. injection of cocaine, 100-400 μl samples of heparinized/NaF treated plasma and 400 μl samples of brain homogenates obtained from cocaine-treated animals are added to 2 ml of 0.1 M Na phosphate buffer, pH 6.0. This is followed by the addition of 5% trichloroacetic acid at a volume equal to that of the experimental sample (100-400 μl). These mixtures are shaken for 20 minutes and then centrifuged for 15 min at 7000 rpm, all at room temperature, in order to precipitate the denatured protein. The supernatants are collected and adjusted to pH 5.4 with 10 M NaOH. Then to serve as internal standards for establishing the identification of cocaine and its metabolites as well as for normalization of the recovery of cocaine/metabolites from the mouse samples, 50 μl of a sample containing deuterated (D3) cocaine-D3, BE-D3 and EME-D3 (each at 1 μg/ml) is added to all of the experimental and the standard control samples before their undergoing solid-phase extraction/column elution. Duplicate, standard control tubes (2 ml) are also prepared containing; 0.1 M Na phosphate buffer, 50 μl of the internal standards D3 cocaine/BE/EME (1 μg/ml, each), 200 μl of normal mouse plasma and varying amounts of cocaine (1-500 ng) and used to generate the standard cocaine concentration curves. Similarly, standard concentration curves are also generated for BE and EME.

[3] = 2E2 in vivo pharmacokinetics, blood mAb by ELISA; details: mice
Description: Then at varying times, to obtain blood samples for mAb quantification, the mice are anesthetized using isoflurane and a sterile 27-gauge hypodermic needle or, alternatively, a sterile scalpel blade is used to puncture or make a small cut in a tail vein and 10 μl of blood is collected using a heparinized capillary pipette tip. The blood is immediately placed in a 1.5 ml polypropylene microcentrifuge tube containing 40 μl of 0.1 M sodium citrate/0.1% sodium azide pH 4.75. These samples are then rapidly placed on ice and then stored at 4° C. until use.
Briefly, the conjugate benzoylecgonine-ovalbumin (3 μg/ml, 100 μl/well) in 1 mM EGTA pH 7.4 is adsorbed onto PVC 96-well microtiter plates for 1 hr. The plates are then washed 3 times with, and all wells exposed for 10 min to, 0.5% BSA in TBS (10 mM Tris, 140 mM NaCl and 0.02% NaN3, pH 6.9) in order to block non-specific protein binding. The second layer, 100 μl/well of the blood samples diluted (1:500) into BSA-TBS, is added and the sample is incubated for 2 hr. […] The plates are washed with a Solution A, containing 0.5% BSA, 10 mM sodium phosphate, 145 mM NaCl, 1.5 mM MgCl2, 0.05% triton X-100 and 0.02% NaN3, pH 7.2. Then 50 μl/well of affinity-purified biotinylated goat anti-human IgG diluted 1:500 in Solution A is added and incubated for 1 hr. After washing, 50 μl/well of streptavidin-alkaline phosphatase, diluted (1:200) in Solution A, is added, incubated for 1 hr and removed. Then 50 μl/well of the colorimetric reaction mixture, comprised of the substrate para-nitrophenylphosphate (1 mg/ml) in substrate buffer (50 mM Na2CO3, 50 mM NaHCO3 1 mM MgCl2 at pH 9.8), is added. After 6-8 min the reaction is stopped with 1M sodium hydroxide (50 μl/well). […] The reaction endpoint is measured with an ELISA reader at a wavelength of 405 nm. […]
The program provides Akaike Information Criterion (AIC) and Schwartz Bayesian Criterion (SBC) measures of “goodness of fit” of the data to the one or two compartment pharmacokinetic models that are used. Data are first analyzed according to a single compartment pharmacokinetic model.

[4] = Effect of infused mAbs on plasma and brain cocaine concentrations and pharmacokinetics; assay type: in vivo, mice
[5] = Radioligand binding assay using antibody and [3H]-cocaine; details: [3H]-cocaine radioligand binding; read-out: dissociation constant (Kd) for cocaine
Description: as §1

[6] = Effect of 2E2 on cocaine metabolite concentrations in plasma and brain; assay type: in vivo; details: mice
[7] = mice, 5 min after i.v. cocaine, stoichiometric mAb dose

CCOC(=O)[C@@H]1C2CCC(C[C@@H]1OC(=O)c1ccccc1)N2C (stereo partly shown) [cocaethylene]
Ki [1]: 3.4 nM

COC(=O)[C@H]1[C@@H](OC(=O)c2ccccc2)C[C@@H]2CC[C@H]1N2C [cocaine]
half-life ([2]; male, Swiss-Webster, mouse, brain, iv, […], t1/2 for entry (input) of cocaine into the brain, mice, absence of 2E2): 2 min | Vd ([2]; male, Swiss-Webster, mouse, plasma, iv, […]): 6 L/kg | half-life ([2]; male, Swiss-Webster, mouse, plasma, iv, […], plasma distribution half-life (t1/2α) of cocaine, mice, cocaine HCl […] i.v., absence of 2E2, two-compartment model): 1.9 min | half-life ([2]; male, Swiss-Webster, mouse, plasma, iv, […], plasma terminal elimination half-life (t1/2β) of cocaine, mice, cocaine HCl […] i.v., absence of 2E2, two-compartment model): 26.1 min | plasma terminal elimination half-life (t1/2β) of cocaine ([2]; mice, cocaine HCl […] i.v., absence of 2E2, two-compartment model): 26 min | brain t1/2α of cocaine ([2]; mice, i.v., absence of 2E2, two-compartment model): 2.0 min | highest measured brain cocaine concentration ([2]; mice, i.v., at 3 min, absence of 2E2): ~1,500 ng/g | highest plasma cocaine concentration ([2]; mice, i.v., earliest sample time (45 sec), absence of 2E2): ~110 ng/mL | brain t1/2β of cocaine ([2]; mouse, in vivo, iv): 14.5 min

CN1[C@H]2CC[C@@H]1[C@@H](C(=O)O)[C@@H](OC(=O)c1ccccc1)C2 [benzoylecgonine]
mean metabolite concentration in brain ([2]; mice, absence of 2E2): 16 ng/g | mean metabolite concentration in plasma ([2]; mice, absence of 2E2): 7 ng/mL | Ki [1]: 43 nM

2E2: anti-cocaine mAb with human gamma heavy chain (SEQ ID NO: 2) and murine lambda light chain (SEQ ID NO: 1)
elimination t1/2 of 2E2 in blood ([3]; 120 mg/kg i.v. infusion, single compartment model): 194 h | initial blood concentration of mAb (mean±SEM) ([3]; 120 mg/kg i.v., 3 minutes after infusion, n=8): 370 ± 17 µg/mL | mean blood concentration of 2E2 ([3]; 120 mg/kg i.v., 24 hours after infusion): 422 ± 21 µg/mL | brain cocaine concentration at highest mAb dose ([4]; mice, 360 mg/kg (3:1 mAb:drug), corrected for residual blood): negligible | increase in plasma cocaine concentrations ([4]; mice, 2E2 12 mg/kg (1:10 mAb:cocaine), 5 min): 5.1 fold | decrease in brain cocaine concentrations ([4]; mice, 2E2 24 mg/kg, 5 min): 35% | peak plasma cocaine concentration, presence vs absence of 2E2 ([4]; mice, 2E2 120 mg/kg): 11.3 fold | t1/2 of cocaine in plasma in the presence of mAb ([4]; mice, 2E2 120 mg/kg (equimolar), single compartment model): 17.1 min | peak plasma cocaine concentration in the presence of 2E2 ([4]; mice, 2E2 120 mg/kg, 45 sec after cocaine […] i.v.): ~1,100 ng/ml | peak brain cocaine concentration in the presence of 2E2 ([4]; mice, 2E2 120 mg/kg, earliest sample time): ~490 ng/g | elimination t1/2 of cocaine in brain in the presence of 2E2 ([4]; mice, 2E2 120 mg/kg, single compartment model): 3.8 min | increase in plasma cocaine concentrations ([4]; mice, 2E2 360 mg/kg (3:1 ratio), 5 min): 46.1 fold | decrease in brain cocaine concentration vs vehicle controls ([4]; mice, 5 min, Table 1): ~5 fold | increase in plasma cocaine concentration vs vehicle controls ([4]; mice, 5 min, Table 1): 29 fold | Change from vehicle (brain cocaine concentration) [4, 7]: −4.8-fold | Change from vehicle (plasma cocaine concentration) [4, 7]: +28.7-fold | Vdss of cocaine in the presence of mAb ([4]; mice, equimolar dose of 2E2): 0.2 L/kg | increase in plasma cocaine AUC ([4]; mouse, in vivo): 26 fold | Kd [5]: 4 nM | effect of 2E2 dose on brain EME concentrations [6]: no systematic effect | effect on brain BE concentrations ([6]; 2E2 doses above 40 mg/kg): concomitant decrease | reduction in plasma EME concentrations ([6]; highest dose of 2E2): ~2 fold | increase in plasma BE concentrations ([6]; increasing doses of 2E2, plateau above 40 mg/kg): ~3 fold

COC(=O)[C@@H]1[C@H]2CC[C@@H](C[C@@H]1O)N2C [ecgonine methyl ester]
mean metabolite concentration in brain ([2]; mice, absence of 2E2): 267 ng/g | mean metabolite concentration in plasma ([2]; mice, absence of 2E2): 25 ng/mL | Ki [1]: 5200 nM

CN1[C@H]2CC[C@@H]1[C@@H](C(=O)O)[C@@H](O)C2 [ecogonine]
Ki [1]: 95000 nM

From US9957332B2, “Compositions and methods for treating cocaine-related disorders” (University of Cincinnati, priority 2006, dated 2018)
